# T1: Solute carrier family 15 member 1 (Homo sapiens) (UniProt P46059)
# T1 sequence (whole entry): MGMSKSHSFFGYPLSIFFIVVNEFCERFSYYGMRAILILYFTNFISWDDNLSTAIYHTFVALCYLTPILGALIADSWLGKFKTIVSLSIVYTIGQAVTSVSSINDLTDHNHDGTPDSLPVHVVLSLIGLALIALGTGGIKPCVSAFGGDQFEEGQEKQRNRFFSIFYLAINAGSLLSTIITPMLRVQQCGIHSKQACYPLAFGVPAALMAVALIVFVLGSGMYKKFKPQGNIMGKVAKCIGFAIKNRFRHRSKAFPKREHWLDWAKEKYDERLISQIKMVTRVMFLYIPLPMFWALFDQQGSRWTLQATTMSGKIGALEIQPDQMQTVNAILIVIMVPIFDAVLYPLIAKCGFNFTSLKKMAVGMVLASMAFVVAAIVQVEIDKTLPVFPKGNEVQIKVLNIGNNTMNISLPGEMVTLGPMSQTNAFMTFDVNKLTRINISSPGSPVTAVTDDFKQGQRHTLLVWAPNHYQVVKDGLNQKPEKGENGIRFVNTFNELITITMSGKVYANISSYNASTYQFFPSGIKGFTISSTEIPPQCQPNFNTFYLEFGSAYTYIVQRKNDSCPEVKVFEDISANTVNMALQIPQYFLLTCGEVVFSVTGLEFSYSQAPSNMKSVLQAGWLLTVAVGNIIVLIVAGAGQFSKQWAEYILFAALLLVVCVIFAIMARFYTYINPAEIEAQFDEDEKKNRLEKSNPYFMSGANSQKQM
# T2: Solute carrier family 15 member 2 (Rattus norvegicus, UniProt Q63424)
# T2 sequence (Q63424 whole entry): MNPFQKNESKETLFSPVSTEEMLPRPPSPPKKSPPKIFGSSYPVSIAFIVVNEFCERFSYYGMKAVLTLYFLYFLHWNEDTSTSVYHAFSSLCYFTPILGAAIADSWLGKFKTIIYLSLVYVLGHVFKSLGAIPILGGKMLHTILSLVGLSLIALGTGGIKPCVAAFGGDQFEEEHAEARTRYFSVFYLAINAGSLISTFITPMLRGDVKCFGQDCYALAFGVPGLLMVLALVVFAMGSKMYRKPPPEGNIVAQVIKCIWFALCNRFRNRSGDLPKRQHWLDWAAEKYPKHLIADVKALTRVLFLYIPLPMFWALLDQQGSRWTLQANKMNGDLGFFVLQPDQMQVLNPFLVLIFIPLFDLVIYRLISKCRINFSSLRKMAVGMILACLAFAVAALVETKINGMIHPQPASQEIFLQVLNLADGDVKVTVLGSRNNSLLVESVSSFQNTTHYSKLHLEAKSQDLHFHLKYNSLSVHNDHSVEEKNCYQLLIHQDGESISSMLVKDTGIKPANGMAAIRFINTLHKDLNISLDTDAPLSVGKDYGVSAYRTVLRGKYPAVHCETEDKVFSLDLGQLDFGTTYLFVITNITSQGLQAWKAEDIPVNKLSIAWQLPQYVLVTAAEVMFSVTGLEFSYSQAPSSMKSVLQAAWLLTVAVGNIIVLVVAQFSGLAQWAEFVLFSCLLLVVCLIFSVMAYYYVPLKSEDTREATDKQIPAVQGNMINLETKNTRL
# T3: Solute carrier family 15 member 2 (Homo sapiens) (UniProt Q16348)
# T3 sequence (whole entry): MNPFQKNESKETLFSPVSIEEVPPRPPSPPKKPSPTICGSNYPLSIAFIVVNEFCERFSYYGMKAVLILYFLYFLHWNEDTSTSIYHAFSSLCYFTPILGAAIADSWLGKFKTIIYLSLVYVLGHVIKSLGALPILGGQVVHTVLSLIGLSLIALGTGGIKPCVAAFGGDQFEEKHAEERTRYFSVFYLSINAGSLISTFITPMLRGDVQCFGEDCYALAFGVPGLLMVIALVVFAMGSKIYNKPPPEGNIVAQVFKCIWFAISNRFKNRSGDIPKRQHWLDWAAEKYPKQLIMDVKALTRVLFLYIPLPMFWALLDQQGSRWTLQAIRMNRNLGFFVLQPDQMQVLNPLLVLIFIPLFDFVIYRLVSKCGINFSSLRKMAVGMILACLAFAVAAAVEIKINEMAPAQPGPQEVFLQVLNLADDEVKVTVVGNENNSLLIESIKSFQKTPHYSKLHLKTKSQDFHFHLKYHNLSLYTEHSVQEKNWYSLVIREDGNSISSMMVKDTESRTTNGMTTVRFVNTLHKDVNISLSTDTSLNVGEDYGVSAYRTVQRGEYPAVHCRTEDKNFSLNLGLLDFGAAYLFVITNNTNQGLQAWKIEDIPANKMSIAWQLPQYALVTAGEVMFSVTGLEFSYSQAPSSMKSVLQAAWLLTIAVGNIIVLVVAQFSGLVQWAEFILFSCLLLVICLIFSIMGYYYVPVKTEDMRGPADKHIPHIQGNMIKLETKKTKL
# T4: Solute carrier family 15 member 1 (Homo sapiens, UniProt P46059)
# T4 sequence (P46059 whole entry): T1 sequence (whole entry)
# T5: Solute carrier family 15 member 2 (Homo sapiens, UniProt Q16348)
# T5 sequence (Q16348 whole entry): T3 sequence (whole entry)
# B1: Solute carrier family 15 member 2 (Rattus norvegicus), Q63424 (protein)
# chain: T2 sequence (Q63424 whole entry)
# Assays:
# Assay type in all cases: functional, cell-based
# [1] = molecular target: T1, Solute carrier family 15 member 1 (Homo sapiens); assay: TP_TRANSPORTER: inhibition of Gly-Sar uptake (Gly-Sar: 20 uM, Cefdinir: 10000 uM) in PEPT1-expressing HeLa cells
# [2] = molecular target: T2, Solute carrier family 15 member 2; assay: TP_TRANSPORTER: inhibition of Gly-Sar uptake (Gly-Sar: 5 uM) in SKPT cells
# [3] = molecular target: T3, Solute carrier family 15 member 2 (Homo sapiens); assay: TP_TRANSPORTER: inhibition of Gly-Sar uptake (Gly-Sar: 50 uM, Cefdinir: 10000 uM) in PEPT2-expressing HeLa cells
# [4] = molecular target: T4, Solute carrier family 15 member 1; assay: TP_TRANSPORTER: inhibition of Gly-Sar uptake (Gly-Sar: 5 uM) in Caco-2 cells
# [5] = molecular target: T1, Solute carrier family 15 member 1 (Homo sapiens); assay: TP_TRANSPORTER: inhibition of Gly-Sar uptake (Gly-Sar: 20 uM, Cefixime: 10000 uM) in PEPT1-expressing HeLa cells
# [6] = molecular target: T3, Solute carrier family 15 member 2 (Homo sapiens); assay: TP_TRANSPORTER: inhibition of Gly-Sar uptake (Gly-Sar: 50 uM, Cefixime: 10000 uM) in PEPT2-expressing HeLa cells
# [7] = molecular target: T4, Solute carrier family 15 member 1; assay: TP_TRANSPORTER: inhibition of Gly-Sar uptake in PEPT1-expressing HeLa cells
# [8] = molecular target: T4, Solute carrier family 15 member 1; assay: TP_TRANSPORTER: inhibition of Gly-Sar uptake in Caco-2 cells
# [9] = molecular target: T2, Solute carrier family 15 member 2; assay: TP_TRANSPORTER: inhibition of Gly-Sar uptake in SKPT cells
# [10] = molecular target: T5, Solute carrier family 15 member 2; assay: TP_TRANSPORTER: inhibition of Gly-Sar uptake in PEPT2-expressing HeLa cells
# [11] = substrate: CN(CC(=O)O)C(=O)CN; assay: TP_TRANSPORTER: uptake in SKPT cells
molecule,measurement,setting,value
C=CC1=C(C(=O)O)N2C(=O)[C@@H](NC(=O)/C(=N\O)c3csc(N)n3)[C@H]2SC1 [CEFDINIR],inhibition,[1],31%
same,IC50,[2],10000 µM
same,Activity,[3],0.48
C=CC1=C(C(=O)O)N2C(=O)[C@@H](NC(=O)/C(=N\OCC(=O)O)c3csc(N)n3)[C@H]2SC1 [CEFIXIME],IC50,[4],10000 µM
same,inhibition,[5],44%
same,IC50,[2],3200 µM
same,Activity,[6],0.54
Nc1nc(/C(=C/CC(=O)O)C(=O)N[C@@H]2C(=O)N3C(C(=O)O)=CCS[C@H]23)cs1 [CEFTIBUTEN],Ki,[7],710 µM
same,Ki,[8],870 µM
same,Ki,[9],380 µM
same,Ki,[10],90 µM
B1,Km,[11],74.5 µM

# From ChEMBL document CHEMBL2074142, “Interaction of anionic cephalosporins with the intestinal and renal peptide transporters PEPT 1 and PEPT 2” (Biochim Biophys Acta, 1997)
